From patent EP1013282A2, “Pharmaceutical and foodstuff compositions containing transferrins and antibacteral agents for potentiating host defence activity and the treatment of infections” (priority 1992, dated 1993)

Assays:
[1] = tested on: Proteus mirabilis strain 1287; test: Upper urinary tract infection in mice, kidney colony count (Example 9); type: in vivo; settings: for colony count ratio, lactoferrin (+) to (-): Lactoferrin (+) relative to Lactoferrin (-)
Excerpt: Example 9-Male ICR mice, five weeks old, were dehydrated overnight, and Proteus mirabilis strain 1287 was inoculated into the bladder at a dose of 2 x 10^5 CFU per mouse. In order for the pathogen to colonize the kidneys, the urethra was closed by a clip for four hours. Ampicillin was orally given to the mice twice daily (10:00 am and 7:00 pm) for two consecutive days with or without oral lactoferrin therapy. On day 3 all mice were sacrificed and the kidneys were dissected ascetically. The kidneys were homogenized in sterile saline and the homogenate was spread over nutrient agar plates to determine the numbers of colonizing bacteria. […]

Proteus vulgaris OX.8 = test: Intraperitoneal Proteus vulgaris infection in mice: oral β-lactam with or without oral lactoferrin (Example 4); type: in vivo; settings: for ED50: ddY mice n=6, survivors at one week; for simultaneous administration with lactoferrin reduced the ED50s to: fraction of ED50 of antibiotic alone, lactoferrin 0.5 mg/mouse
Method: Example 4-The efficacy potentiation of lactoferrin was examined using mice infected with Proteus vulgaris OX.8. Each group of six mice, strain ddY, four weeks old, were intraperitoneally infected with P. vulgaris suspended in 3% gastric mucin at a dose of 2 x 10^6 cells per mouse. One hour after the injection, lactoferrin (0.5 mg/mouse) was orally given simultaneously with cephalosporins. […]
Consequently, the efficacy potentiation of cephalosporin due to simultaneous treatment with lactoferrin is not restricted merely to the pathogens belonging to the genus Escherichia and Klebsiella, but also includes Proteus.

Escherichia coli c 11 [2] = test: Optimal dose of lactoferrin with cefaclor in E. coli infected mice (Example 6); type: in vivo; settings: Lactoferrin dose 0.000 (cefaclor alone)
Method: Example 6-Optimal dose of lactoferrin was studied using mice strain ddY (n=6), four weeks old. The mice were intraperitoneally infected with Escherichia coli c 11 at a dose of 1 x 10^6 cells per mouse, and they were treated once orally with a mixture of lactoferrin and cefaclor one hour after the injection.

[3] = tested on: Escherichia coli strain c-11; test: Intraperitoneal E. coli infection in mice: oral cephalosporin with or without oral lactoferrin (Example 3); type: in vivo; settings: for ED50: ddY mice n=6, survivors at one week; for ED50s reduced by simultaneous administration of lactoferrin to: fraction of ED50 of antibiotic alone, lactoferrin 1 mg/mouse
Method: Example 3-groups of six male mice strain ddY, four weeks old, were used in this experiment. They were intraperitoneally infected with 3% mucin suspension of Escherichia coli strain c-11 at a dose of 1 X 10^6 cells per mouse. Oral cephalosporin antibiotic was administered one hour after the injection simultaneously with bovine milk lactoferrin (26% iron saturation), 1 mg/mouse. Each control was given cephalosporin alone. The mice were observed one week after the injection and survivors were regarded as completely cured. […]

Escherichia coli c 11 [4] = test: Timing of lactoferrin administration with cefaclor in E. coli infected mice (Example 7); type: in vivo; settings: control (no lactoferrin)
Excerpt: Example 7-The timing of lactoferrin administration is very important not only from a clinical point of view, but also from an economical point of view, since it indicates whether or not the treatment with lactoferrin is prophylactic, or curative, or both. The timing was studied using the same model as described in Example 6. Cefaclor was orally given one hour after injection of the bacteria. […]

[5] = Serum concentrations of cephalosporins with or without lactoferrin, bioassay with Bacillus subtilis (Experimental Example 2)
Method: Experimental Example 2-The effect of lactoferrin on intestinal absorption of cephalosporin antibiotics was studied using male ddY mice (n=6), five weeks old.
The cephalosporin antibiotics used were cephalexin, cefixime, cefaclor and cefroxazine, and the serum , concentrations were determined by bioassay using Bacillus subtilis. The doses of the antibiotics and lactoferrin were 0.5 mg per mouse of each.

Escherichia coli c 11 [6] = test: Intraperitoneal E. coli infection in mice: other chemotherapies with or without lactoferrin (Example 5); type: in vivo; settings: for ED50: gentamicin subcutaneous, ddY mice n=6; for potentiation of efficacy of the chemotherapy by lactoferrin: lactoferrin 0.5 mg/mouse oral, in vivo
Excerpt: Example 5-The antimicrobial activities of chemotherapies were compared with or without lactoferrin treatment. The antimicrobial agents used were new quinolones, aminoglycoside antibiotic, gentamicin, erythromycin, chloramphenicol and minocycline. The efficacy was compared between the controls and lactoferrin groups. Mice strain ddY, four weeks old, were randomly allocated into groups (n=6) and intraperitoneally infected with Escherichia coli c 11 at a dose of 1 x 10^6 cells per mouse. One hour after the injection the chemotherapies and lactoferrin (0.5 mg/mouse) were simultaneously given orally except gentamicin was given subcutaneously since it is unabsorable from the intestinal tract. Evaluation of potentiation of the chemotherapies by lactoferrin is the same as described above. […]

[7] = antibiotic alone (Lactoferrin -), oral one hour after infection
[8] = antibiotic with Lactoferrin + (0.5 mg/mouse, oral, simultaneous)
[9] = antibiotic with Lactoferrin + (bovine milk lactoferrin 1 mg/mouse, oral, simultaneous)
[10] = mice, oral, lactoferrin simultaneously, blood withdrawn periodically
[11] = agent alone (Lactoferrin -), oral, one hour after infection
[12] = agent with Lactoferrin + (0.5 mg/mouse oral, simultaneous)

Row | Compound | ED50 (Proteus vulgaris OX.8; [7]) | ED50 (Proteus vulgaris OX.8; [8]) | simultaneous administration with lactoferrin reduced the ED50s to (Proteus vulgaris OX.8) | ED50 [3, 7] | ED50 [3, 9] | ED50s reduced by simultaneous administration of lactoferrin to [3] | ED50 (Escherichia coli c 11 [6]; [11]) | ED50 (Escherichia coli c 11 [6]; [12]) | other results
1 | CC1(C)S[C@@H]2[C@H](NC(=O)[C@H](N)c3ccccc3)C(=O)N2[C@H]1C(=O)O [ampicillin] | 0.300 mg/mouse | 0.148 mg/mouse | 1/2 | – | – | – | – | – | colony quantity, Lactoferrin (-) ([1]; ampicillin 0.01 mg/mouse): 100,704 CFU/kidney; colony quantity, Lactoferrin (+) ([1]; ampicillin 0.01 mg/mouse with lactoferrin 1 mg per mouse): 58 CFU/kidney; colony count ratio, lactoferrin (+) to (-) ([1]; ampicillin 0.01 mg/mouse): 1/1736; colony quantity, Lactoferrin (-) ([1]; ampicillin 0.1 mg/mouse): 63,216 CFU/kidney; colony quantity, Lactoferrin (+) ([1]; ampicillin 0.1 mg/mouse with lactoferrin 1 mg per mouse): 36 CFU/kidney; colony count ratio, lactoferrin (+) to (-) ([1]; ampicillin 0.1 mg/mouse): 1/1756; colony quantity, Lactoferrin (-) ([1]; ampicillin 1.0 mg/mouse oral twice daily for two days, ICR mice, kidneys on day 3): 88 CFU/kidney; colony quantity, Lactoferrin (+) ([1]; ampicillin 1.0 mg/mouse with lactoferrin 1 mg per mouse): 0 CFU/kidney; colony count ratio, lactoferrin (+) to (-) ([1]; ampicillin 1.0 mg/mouse): <1/88
2 | N[C@@H](C(=O)N[C@@H]1C(=O)N2C(C(=O)O)=C(Cl)CS[C@H]12)c1ccccc1 [cefaclor] | 1.790 mg/mouse | 0.058 mg/mouse | 1/3 | 0.75 mg/mouse | 0.38 mg/mouse | 1/2 | – | – | ED50 (Escherichia coli c 11 [2]): 1.510 mg/mouse; ED50 (Escherichia coli c 11 [4]): 1.846 mg/mouse; blood levels of the antibiotics with versus without lactoferrin [5, 10]: virtually the same
3 | CC1=C(C(=O)O)N2C(=O)[C@@H](NC(=O)[C@H](N)c3ccccc3)[C@H]2SC1 [cefalexin] | 0.402 mg/mouse | 0.185 mg/mouse | 1/2 | 8.54 mg/mouse | 1.42 mg/mouse | 1/4 | – | – | blood levels of the antibiotics with versus without lactoferrin ([5]; mouse, in vivo, po): virtually the same
4 | C=CC1=C(C(=O)O)N2C(=O)[C@@H](NC(=O)/C(=N\OCC(=O)O)c3csc(N)n3)[C@H]2SC1 [cefixime] | 0.519 mg/mouse | 0.177 mg/mouse | 1/3 | 1.03 mg/mouse | 0.23 mg/mouse | 1/4 | – | – | blood levels of the antibiotics with versus without lactoferrin [5, 10]: virtually the same
5 | COC1=C(C(=O)O)N2C(=O)[C@@H](NC(=O)[C@H](N)C3=CCC=CC3)[C@H]2SC1 [cefroxadine] | 0.606 mg/mouse | 0.312 mg/mouse | – | 1.27 mg/mouse | 0.42 mg/mouse | 1/3 | – | – | blood levels of the antibiotics with versus without lactoferrin [5, 10]: virtually the same
6 | O=C(N[C@H](CO)[C@H](O)c1ccc([N+](=O)[O-])cc1)C(Cl)Cl [chloramphenicol] | – | – | – | – | – | – | 5.11 mg/mouse | 1.94 mg/mouse | potentiation of efficacy of the chemotherapy by lactoferrin (Escherichia coli c 11 [6]): potentiated the efficacy
7 | O=C(O)c1cn(C2CC2)c2cc(N3CCNCC3)c(F)cc2c1=O [ciprofloxacin] | – | – | – | – | – | – | 0.200 mg/mouse | 0.214 mg/mouse | –
8 | CC[C@H]1OC(=O)[C@H](C)[C@@H](O[C@H]2C[C@@](C)(OC)[C@@H](O)[C@H](C)O2)[C@H](C)[C@@H](O[C@@H]2O[C@H](C)C[C@H](N(C)C)[C@H]2O)[C@](C)(O)C[C@@H](C)C(=O)[C@H](C)[C@@H](O)[C@]1(C)O [erythromycin] | – | – | – | – | – | – | – | – | potentiation of efficacy of the chemotherapy by lactoferrin (Escherichia coli c 11 [6]): potentiated the efficacy
9 | CN(C)c1ccc(O)c2c1C[C@H]1C[C@H]3[C@H](N(C)C)C(O)=C(C(N)=O)C(=O)[C@@]3(O)C(O)=C1C2=O [minocycline] | – | – | – | – | – | – | 1.859 mg/mouse | 0.631 mg/mouse | –
10 | CC1COc2c(N3CCN(C)CC3)c(F)cc3c(=O)c(C(=O)O)cn1c23 (stereo not shown) [ofloxacin] | – | – | – | – | – | – | 0.231 mg/mouse | 0.251 mg/mouse | –
11 | NC1CCN(c2nc3c(cc2F)c(=O)c(C(=O)O)cn3-c2ccc(F)cc2F)C1 (stereo not shown) [tosfloxacin] | – | – | – | – | – | – | 0.013 mg/mouse | 0.009 mg/mouse | –
12 | gentamicin | – | – | – | – | – | – | 0.608 mg/mouse | 0.610 mg/mouse | –
